# In patent US6670379B2, “Piperidine compounds for use as ccr-3 inhibitors” (Novartis AG, priority 2000, dated 2003):
# Assays:
# [1] = target: alpha-1 adrenergic receptor; experiment: alpha-1 adrenergic receptor radioligand binding assay ([125I]-HEAT, rat cerebral cortex membranes); settings: for IC50: [125I]-HEAT 40 pM, 37° C. for 60 min, read-out: IC50 (inhibition of binding of the alpha-1 adrenergic receptor)
# Protocol: Cerebral cortices from male Sprague-Dawley rats (175-200 g) are dissected and homogenised in 10 volumes of ice cold 0.32 M sucrose (containing 1 mM MgCl2 dihydrate and 1 mM K2HPO4) with a glass/teflon homogeniser. The membranes are centrifuged at 1000×g for 15 min., the pellet discarded and the centrifugation repeated. The supernatants are pooled and centrifuged at 18,000×g for 15 min. The pellet is osmotically shocked in 10 volumes of water and kept on ice for 30 min. The suspension is centrifuged at 39,000×g for 20 min., resuspended in Krebs-Henseleit buffer pH 7.4 (1.17 mM MgSO4 anhydrous, 4.69 mM KCl, 0.7 mM K2HPO4 anhydrous, 0.11M NaCl, 11 mM D-glucose and 25 mM NaHCO3) containing 20 mM Tris, and kept for 2 days at −20° C. The membranes are then thawed at 20-23° C., washed three times with Krebs-Henseleit buffer by centrifugation at 18,000×g for 15 min., left overnight at 4° C. and washed again three times. The final pellet is resuspended with a glass/teflon homogeniser in 125 mL/100 membranes in the same buffer. A sample is taken to determine the protein concentration (using the Bradford Assay with gamma globulin as the standard) and the remainder aliquoted and stored at −80° C.
# The resulting membranes are subjected to a radioligand binding assay. […] The plates are incubated at 37° C. for 60 min., after which rapid vacuum filtration over Whatman GF/C 96 well filter plates is carried out. Each plate is then washed three times with 10 ml of ice cold assay buffer using a Brandel Cell harvester (Gaithersburg, Md.). Following drying of the plates for 3 h. at 50° C., 40 μL of Microscint 20 is added to each well, the plates incubated at room temperature for a further 20 min. and the retained radioactivity quantified in a Packard Topcount NXT scintillation counter.
# Stock solutions of test compounds are dissolved initially in 100% DMSO and diluted with assay buffer to the required concentrations to yield 1% (v/v) DMSO.
# human CCR-3 = target: T1, human CCR-3 (Homo sapiens, UniProt P51677); experiment: CCR-3 Binding Assay (SPA, [125I]-human eotaxin); settings: membranes of RBL-2H3 cells stably expressing CCR3; 50 pM [125I]-human eotaxin; 4 hours at room temperature; read-out: IC50 (inhibition of binding of human eotaxin to human CCR-3)
# T1 construct: expressed in transfected cells; host or cells: rat basophil leukemia (RBL-2H3) cells
# T1 sequence (P51677 1-355): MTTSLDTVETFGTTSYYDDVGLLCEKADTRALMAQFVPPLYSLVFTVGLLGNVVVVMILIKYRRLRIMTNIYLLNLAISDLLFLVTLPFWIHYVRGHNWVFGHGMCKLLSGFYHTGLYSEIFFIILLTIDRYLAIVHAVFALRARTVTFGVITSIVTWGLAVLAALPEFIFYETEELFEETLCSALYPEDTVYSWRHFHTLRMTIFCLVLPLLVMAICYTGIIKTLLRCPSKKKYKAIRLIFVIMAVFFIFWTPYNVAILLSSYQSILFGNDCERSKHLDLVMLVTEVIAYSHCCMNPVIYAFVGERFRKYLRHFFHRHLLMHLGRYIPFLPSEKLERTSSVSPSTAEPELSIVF
# Protocol: In this assay the effect of agents of the invention on the binding of human eotaxin to human CCR-3 is determined. Recombinant cells expressing human CCR-3 are captured by wheatgerm agglutinin (WGA) polyvinyltoluidene (PVT) SPA beads (available from Amersham), through a specific interaction between the WGA and carbohydrate residues of glycoproteins on the surface of the cells. [^125I]-human eotaxin (available from Amersham) binds specifically to CCR-3 receptors bringing the [^125I]-human eotaxin in close proximity to the SPA beads. Emitted â-particles from the [^125I]-human eotaxin excite, by its proximity, the fluorophore in the beads and produce light.
# Preparation of Assay Buffer: 5.96 g HEPES and 7.0 g sodium chloride are dissolved in distilled water and 1M aqueous CaCl2 (1 mL) and 1M aqueous MgCl2 (5 mL) are added. The pH is adjusted to 7.6 with NaOH and the solution made to a final volume of 1 L using distilled water. 5 g bovine serum albumin and 0.1 g sodium azide are then dissolved in the solution and the resulting buffer stored at 4° C. A Complete™ protease inhibitor cocktail tablet (available from Boehringer) is added per 50 mL of the buffer on the day of use.
# Preparation of Homogenisation Buffer: Tris-base (2.42 g) is dissolved in distilled water, the pH of the solution is adjusted to 7.6 with hydrochloric acid and the solution is diluted with distilled water to a final volume of 1L. The resulting buffer is stored at 4° C. A Complete™ protease inhibitor cocktail tablet is added per 50 mL of the buffer on the day of use.
# Preparation of membranes: Confluent rat basophil leukemia (RBL-2H3) cells stably expressing CCR3 are removed from tissue culture flasks using enzyme-free cell dissociation buffer and resuspended in phosphate-buffered saline. The cells are centrifuged (800 g, 5 minutes), the pellet resuspended in ice-cold homogenisation buffer using 1 mL homogenisation buffer per gram of cells and incubated on ice for 30 minutes. The cells are homogenised on ice with 10 strokes in a glass mortar and pestle. The homogenate is centrifuged (800 g, 5 minutes, 4° C.), the supernatant further centrifuged (48,000 g, 30 minutes, 4° C.) and the pellet redissolved in Homogenisation Buffer containing 10% (v/v) glycerol. The protein content of the membrane preparation is estimated by the method of Bradford (Anal.Biochem. (1976) 72:248) and aliquots are snap frozen and stored at −80° C. The assay is performed in a final volume of 250 μL per well of an Optiplate (ex Canberra Packard). To selected wells of the Optiplate are added 50 μL of solutions of a test compound in Assay Buffer containing 5% DMSO (concentrations from 0.1 nM to 10 μM). To determine total binding, 50 μL of the Assay Buffer containing 5% DMSO is added to other selected wells. To determine non-specific binding, 50 μL of 100 nM human eotaxin (ex R&D Systems) in Assay Buffer containing 5% DMSO is added to further selected wells. To all wells are added 50 μL [^125I]-Human eotaxin (ex Amersham) in Assay Buffer containing 5% DMSO at a concentration of 250 pM (to give a final concentration of 50 pM per well), 50 μL of WGA-PVT SPA beads in Assay Buffer (to give a final concentration of 1.0 mg beads per well) and 100 μL of the membrane preparation at a concentration of 100 μg protein in Assay Buffer (to give a final concentration of 10 μg protein per well). The plate is then incubated for 4 hours at room temperature. The plate is sealed using TopSeal-S (ex Canberra Packard) according to the manufacturer's instructions. The resulting scintillations are counted using a Canberra Packard TopCount, each well being counted for 1 minute. The concentration of test compound at which 50% inhibition occurs (IC50) is determined from concentration-inhibition curves in a conventional manner.
SMILES,IC50 [1] [nM],IC50 (human CCR-3) [nM],melting point [°C],Kd [1] [nM]
N#Cc1cccc(/C=C/C(=O)NCCN2CCC(C(=O)c3ccc(F)cc3)CC2)c1 [Example 1],210,125,,
"N#Cc1cccc(/C=C/C(=O)N[C@H](Cc2ccccc2)CN2CCC(C(=O)c3ccc(F)cc3)CC2)c1 [Example 2, (E)-N-{(R)-1-Benzyl-2-[4-(4-fluoro-benzoyl)-piperidin-1-yl]-ethyl}-3-(3-cyano-phenyl)-acrylamide]",221,68,,
CCOc1ccc(Br)cc1/C=C/C(=O)N[C@H](Cc1ccccc1)CN1CCC(C(=O)c2ccc(F)cc2)CC1 [Example 4],94,13,,
COc1ccc(Br)cc1/C=C/C(=O)NCCN1CCC(C(=O)c2ccc(F)cc2)CC1 [Example 7],48,15,,
COc1ccc(Br)cc1/C=C/C(=O)N[C@H](Cc1cccnc1)CN1CCC(C(=O)c2ccc(F)cc2)CC1 [Example 9],58,5,,
"COc1ccc(Br)cc1/C=C/C(=O)NCCN1CCC(C(=O)c2ccc(Cl)cc2)CC1 [Example 13, (E)-3-(5-Bromo-2-methoxy-phenyl)-N-{2-[4-(4-chloro-benzoyl)-piperidin-1-yl]-ethyl}-acrylamide]",53,26,,
CC(C)Oc1ccc(Br)cc1/C=C/C(=O)NCCN1CCC(C(=O)c2ccc(F)cc2)CC1 [Example 20],89,8,,
N#Cc1cccc(/C=C/C(=O)N[C@H](Cc2ccco2)CN2CCC(C(=O)c3ccc(F)cc3)CC2)c1 [Example 23],131,10,,
COc1ccc(Br)cc1/C=C/C(=O)N[C@H](CO)CN1CCC(C(=O)c2ccc(F)cc2)CC1 [Example 25],387,11,,
COc1ccc(C#N)cc1/C=C/C(=O)N[C@H](Cc1ccco1)CN1CCC(C(=O)c2ccc(F)cc2)CC1 [Example 28],72,2,,

# The remaining lines, values ahead:
IC50 [1] [nM],IC50 (human CCR-3) [nM],melting point [°C],Kd [1] [nM],SMILES
121,13,,,COc1ccc(C#N)cc1/C=C/C(=O)N[C@H](Cc1cnc[nH]1)CN1CCC(C(=O)c2ccc(F)cc2)CC1 [Example 30]
1520,14,,,"COc1ccc(C#N)cc1/C=C/C(=O)N[C@H](CO)CN1CCC(C(=O)c2ccc(Cl)cc2)CC1 [Example 38, (E)-N-{(S)-2-[4-(4-chloro-benzoyl)-piperidin-1-yl]-1-hydroxymethyl-ethyl}-3-(5-cyano-2-methoxy-phenyl)-acrylamide]"
215,6,,,COc1ccc(Cl)cc1/C=C/C(=O)N[C@H](CO)CN1CCC(C(=O)c2ccc(Cl)cc2)CC1 [Example 40]
356,22,,,COc1ccc(Br)cc1/C=C/C(=O)N[C@H](CO)CN1CCC(C(=O)c2ccc(Cl)cc2)CC1 [Example 43]
331,25,,,COc1ccc(C#N)cc1/C=C/C(=O)N[C@H](Cc1ccncc1)CN1CCC(C(=O)c2ccc(F)cc2)CC1 [Example 44]
,,162 to 163,,"COc1ccc(C#N)cc1/C=C/C(=O)N[C@H](CO)CN1CCC(C(=O)c2ccc(Cl)cc2)CC1 [Example 47, (E)-N-{(S)-1-[4-(4-Chloro-benzoyl)-piperidin-1-ylmethyl]-2-hydroxy-ethyl}-3-(5-cyano-2-methoxy-phenyl)-acrylamide]"
,,,0.0589 ± 0.0187,"O=C1c2ccccc2CCC1CNCCc1ccc(O)c(I)c1 (centres unmarked) [[^125I]-HEAT, reference compound]"
